Measurements: ChEMBL document CHEMBL1949505, “Total synthesis and structure-activity relationships of new echinocandin-like antifungal cyclolipohexapeptides” (2012)
Bridge positions count the residues as written; N and C are the ends. Square brackets hold non-standard residues; d marks the D form. Peptide text beside a SMILES is read from it. * marks the point of attachment. 2Naphthoyl(6-heptyloxy) = CCCCCCCOc1ccc2cc(C(=O)*)ccc2c1; 2Naphthoyl(6-octyloxy) = CCCCCCCCOc1ccc2cc(C(=O)*)ccc2c1; X2 = CCCCCCCOc1ccc(-c2ccc(-c3ccc(C(=O)*)cc3)cc2)cc1; X1 = CCCOc1ccc(-c2ccc(-c3ccc(C(=O)*)cc3)cc2)cc1; Pro(4S-NH2) = N[C@@H]1CN[C@H](C(=O)O)C1; hTyr = N[C@@H](CCc1ccc(O)cc1)C(=O)O; Orn = NCCC[C@H](N)C(=O)O

How the values were obtained:
Assay type in all cases: functional
Candida parapsilosis = experiment: Antifungal activity against Candida parapsilosis after 24 hrs by serial dilution method; details: Lodderomyces parapsilosis
Aspergillus fumigatus = experiment: Antifungal activity against Aspergillus fumigatus after 7 days by serial dilution method; details: 168 h
Cryptococcus neoformans = experiment: Antifungal activity against Cryptococcus neoformans after 72 hrs by serial dilution method
Trichophyton rubrum = experiment: Antifungal activity against Trichophyton rubrum after 7 days by serial dilution method; details: 168 h
Candida albicans = experiment: Antifungal activity against Candida albicans after 24 hrs by serial dilution method
Candida tropicalis = experiment: Antifungal activity against Candida tropicalis after 24 hrs by serial dilution method
Pichia kudriavzevii = experiment: Antifungal activity against Candida krusei after 24 hrs by serial dilution method

Row | SMILES | MIC80 (Candida parapsilosis) | MIC80 (Aspergillus fumigatus) | MIC80 (Cryptococcus neoformans) | MIC80 (Trichophyton rubrum) | MIC80 (Candida albicans) | MIC80 (Candida tropicalis) | MIC80 (Pichia kudriavzevii)
1 | CCCCCOc1ccc2cc(C(=O)N[C@H]3CCCNC(=O)[C@@H]4C[C@H](N)CN4C(=O)[C@H]([C@H](C)O)NC(=O)[C@H](CCc4ccc(O)cc4)NC(=O)[C@@H]4C[C@H](N)CN4C(=O)[C@H]([C@@H](C)O)NC3=O)ccc2c1.Cc1ccc(S(=O)(=O)O)cc1 | 32 µg/mL | > 64 µg/mL | > 64 µg/mL | > 64 µg/mL | 2 µg/mL | > 64 µg/mL | 8 µg/mL
2 | CCCCCCOc1ccc2cc(C(=O)N[C@H]3CCCNC(=O)[C@@H]4C[C@H](N)CN4C(=O)[C@H]([C@H](C)O)NC(=O)[C@H](CCc4ccc(O)cc4)NC(=O)[C@@H]4C[C@H](N)CN4C(=O)[C@H]([C@@H](C)O)NC3=O)ccc2c1.Cc1ccc(S(=O)(=O)O)cc1 | 32 µg/mL | > 64 µg/mL | > 64 µg/mL | > 64 µg/mL | 2 µg/mL | 64 µg/mL | 2 µg/mL
3 | CCCCCCCOc1ccc2cc(C(=O)N[C@H]3CCCNC(=O)[C@@H]4C[C@H](N)CN4C(=O)[C@H]([C@H](C)O)NC(=O)[C@H](CCc4ccc(O)cc4)NC(=O)[C@@H]4C[C@H](N)CN4C(=O)[C@H]([C@@H](C)O)NC3=O)ccc2c1.Cc1ccc(S(=O)(=O)O)cc1 | 32 µg/mL | > 64 µg/mL | > 64 µg/mL | > 64 µg/mL | 2 µg/mL | 64 µg/mL | 8 µg/mL
4 | CCCCCCCCOc1ccc2cc(C(=O)N[C@H]3CCCNC(=O)[C@@H]4C[C@H](N)CN4C(=O)[C@H]([C@H](C)O)NC(=O)[C@H](CCc4ccc(O)cc4)NC(=O)[C@@H]4C[C@H](N)CN4C(=O)[C@H]([C@@H](C)O)NC3=O)ccc2c1.Cc1ccc(S(=O)(=O)O)cc1 | 32 µg/mL | > 64 µg/mL | > 64 µg/mL | > 64 µg/mL | 2 µg/mL | 32 µg/mL | 8 µg/mL
5 | CCCCCCCOc1ccc2cc(C(=O)N[C@H]3CCCNC(=O)[C@@H]4C[C@H](N)CN4C(=O)[C@H]([C@H](C)O)NC(=O)[C@H](CCc4ccc(O)cc4)NC(=O)[C@@H]4C[C@H](N)CN4C(=O)[C@H](CO)NC3=O)ccc2c1.Cc1ccc(S(=O)(=O)O)cc1 | 32 µg/mL | > 64 µg/mL | > 64 µg/mL | 64 µg/mL | > 64 µg/mL | 32 µg/mL | 8 µg/mL
6 | CCCOc1ccc(-c2ccc(-c3ccc(C(=O)N[C@H]4CCCNC(=O)[C@@H]5C[C@H](N)CN5C(=O)[C@H](CCCCN)NC(=O)[C@H](CCc5ccc(O)cc5)NC(=O)[C@@H]5CCCN5C(=O)[C@H]([C@@H](C)O)NC4=O)cc3)cc2)cc1.Cc1ccc(S(=O)(=O)O)cc1 (X1-[Orn]TP[hTyr]K[Pro(4S-NH2)]; lactam 1-C) | 2 µg/mL | 1 µg/mL | 16 µg/mL | 64 µg/mL | 0.25 µg/mL | 16 µg/mL | 1 µg/mL
7 | CCCOc1ccc(-c2ccc(-c3ccc(C(=O)N[C@H]4CCCNC(=O)[C@@H]5C[C@H](N)CN5C(=O)[C@H](CCCCN)NC(=O)[C@H](CCc5ccc(O)cc5)NC(=O)[C@@H]5CCCN5C(=O)[C@H](C(C)C)NC4=O)cc3)cc2)cc1.Cc1ccc(S(=O)(=O)O)cc1 (X1-[Orn]VP[hTyr]K[Pro(4S-NH2)]; lactam 1-C) | 4 µg/mL | 0.25 µg/mL | 32 µg/mL | 16 µg/mL | 0.5 µg/mL | 16 µg/mL | 2 µg/mL
8 | CCCOc1ccc(-c2ccc(-c3ccc(C(=O)N[C@H]4CCCNC(=O)[C@@H]5C[C@H](N)CN5C(=O)[C@H](CCCN)NC(=O)[C@H](CCc5ccc(O)cc5)NC(=O)[C@@H]5CCCN5C(=O)[C@H](C(C)C)NC4=O)cc3)cc2)cc1.Cc1ccc(S(=O)(=O)O)cc1 (X1-[Orn]VP[hTyr][Orn][Pro(4S-NH2)]; lactam 1-C) | 4 µg/mL | 0.5 µg/mL | 32 µg/mL | 16 µg/mL | 0.5 µg/mL | 8 µg/mL | 2 µg/mL
9 | CCCCCCCOc1ccc(-c2ccc(-c3ccc(C(=O)N[C@H]4CCCNC(=O)[C@@H]5C[C@H](N)CN5C(=O)[C@H](CCCCN)NC(=O)[C@H](CCc5ccc(O)cc5)NC(=O)[C@@H]5CCCN5C(=O)[C@H]([C@@H](C)O)NC4=O)cc3)cc2)cc1.Cc1ccc(S(=O)(=O)O)cc1 (X2-[Orn]TP[hTyr]K[Pro(4S-NH2)]; lactam 1-C) | 2 µg/mL | 1 µg/mL | 16 µg/mL | 16 µg/mL | 0.25 µg/mL | 8 µg/mL | 1 µg/mL
10 | CCCCCCCOc1ccc(-c2ccc(-c3ccc(C(=O)N[C@H]4CCCNC(=O)[C@@H]5C[C@H](N)CN5C(=O)[C@H](CCCN)NC(=O)[C@H](CCc5ccc(O)cc5)NC(=O)[C@@H]5CCCN5C(=O)[C@H]([C@@H](C)O)NC4=O)cc3)cc2)cc1.Cc1ccc(S(=O)(=O)O)cc1 (X2-[Orn]TP[hTyr][Orn][Pro(4S-NH2)]; lactam 1-C) | 2 µg/mL | 0.5 µg/mL | 16 µg/mL | 16 µg/mL | 0.25 µg/mL | 8 µg/mL | 1 µg/mL
11 | CCCCCCCOc1ccc(-c2ccc(-c3ccc(C(=O)N[C@H]4CCCNC(=O)[C@@H]5C[C@H](N)CN5C(=O)[C@H](CCCCN)NC(=O)[C@H](CCc5ccc(O)cc5)NC(=O)[C@@H]5CCCN5C(=O)[C@H](C(C)C)NC4=O)cc3)cc2)cc1.Cc1ccc(S(=O)(=O)O)cc1 (X2-[Orn]VP[hTyr]K[Pro(4S-NH2)]; lactam 1-C) | 4 µg/mL | 1 µg/mL | 32 µg/mL | 16 µg/mL | 1 µg/mL | 16 µg/mL | 2 µg/mL
12 | CCCCCCCOc1ccc(-c2ccc(-c3ccc(C(=O)N[C@H]4CCCNC(=O)[C@@H]5C[C@H](N)CN5C(=O)[C@H](CCCN)NC(=O)[C@H](CCc5ccc(O)cc5)NC(=O)[C@@H]5CCCN5C(=O)[C@H](C(C)C)NC4=O)cc3)cc2)cc1.Cc1ccc(S(=O)(=O)O)cc1 (X2-[Orn]VP[hTyr][Orn][Pro(4S-NH2)]; lactam 1-C) | 8 µg/mL | 1 µg/mL | 64 µg/mL | 32 µg/mL | 1 µg/mL | 16 µg/mL | 2 µg/mL
13 | CCCCCCCOc1ccc2cc(C(=O)N[C@H]3CCCNC(=O)[C@@H]4C[C@H](N)CN4C(=O)[C@H](CCCN)NC(=O)[C@H](CCc4ccc(O)cc4)NC(=O)[C@@H]4CCCN4C(=O)[C@H]([C@@H](C)O)NC3=O)ccc2c1.Cc1ccc(S(=O)(=O)O)cc1 ({2Naphthoyl(6-heptyloxy)}-[Orn]TP[hTyr][Orn][Pro(4S-NH2)]; lactam 1-C) | 4 µg/mL | 1 µg/mL | 32 µg/mL | 32 µg/mL | 0.25 µg/mL | 32 µg/mL | 1 µg/mL
14 | CCCCCCCOc1ccc2cc(C(=O)N[C@H]3CCCNC(=O)[C@@H]4C[C@H](N)CN4C(=O)[C@H](CCCCN)NC(=O)[C@H](CCc4ccc(O)cc4)NC(=O)[C@@H]4CCCN4C(=O)[C@H](C(C)C)NC3=O)ccc2c1.Cc1ccc(S(=O)(=O)O)cc1 ({2Naphthoyl(6-heptyloxy)}-[Orn]VP[hTyr]K[Pro(4S-NH2)]; lactam 1-C) | 4 µg/mL | 1 µg/mL | 32 µg/mL | 32 µg/mL | 0.5 µg/mL | 32 µg/mL | 2 µg/mL
15 | CCCCCCCOc1ccc2cc(C(=O)N[C@H]3CCCNC(=O)[C@@H]4C[C@H](N)CN4C(=O)[C@H](CCCN)NC(=O)[C@H](CCc4ccc(O)cc4)NC(=O)[C@@H]4CCCN4C(=O)[C@H](C(C)C)NC3=O)ccc2c1.Cc1ccc(S(=O)(=O)O)cc1 ({2Naphthoyl(6-heptyloxy)}-[Orn]VP[hTyr][Orn][Pro(4S-NH2)]; lactam 1-C) | 4 µg/mL | 0.5 µg/mL | 32 µg/mL | 32 µg/mL | 1 µg/mL | 32 µg/mL | 2 µg/mL
16 | CCCCCCCCOc1ccc2cc(C(=O)N[C@H]3CCCNC(=O)[C@@H]4C[C@H](N)CN4C(=O)[C@H](CCCCN)NC(=O)[C@H](CCc4ccc(O)cc4)NC(=O)[C@@H]4CCCN4C(=O)[C@H]([C@@H](C)O)NC3=O)ccc2c1.Cc1ccc(S(=O)(=O)O)cc1 ({2Naphthoyl(6-octyloxy)}-[Orn]TP[hTyr]K[Pro(4S-NH2)]; lactam 1-C) | 4 µg/mL | 1 µg/mL | 32 µg/mL | 32 µg/mL | 0.5 µg/mL | 32 µg/mL | 1 µg/mL
17 | CCCCCCCCOc1ccc2cc(C(=O)N[C@H]3CCCNC(=O)[C@@H]4C[C@H](N)CN4C(=O)[C@H](CCCN)NC(=O)[C@H](CCc4ccc(O)cc4)NC(=O)[C@@H]4CCCN4C(=O)[C@H]([C@@H](C)O)NC3=O)ccc2c1.Cc1ccc(S(=O)(=O)O)cc1 ({2Naphthoyl(6-octyloxy)}-[Orn]TP[hTyr][Orn][Pro(4S-NH2)]; lactam 1-C) | 4 µg/mL | 1 µg/mL | 32 µg/mL | 32 µg/mL | 0.5 µg/mL | 4 µg/mL | 1 µg/mL
18 | CCCCCCCCOc1ccc2cc(C(=O)N[C@H]3CCCNC(=O)[C@@H]4C[C@H](N)CN4C(=O)[C@H](CCCCN)NC(=O)[C@H](CCc4ccc(O)cc4)NC(=O)[C@@H]4CCCN4C(=O)[C@H](C(C)C)NC3=O)ccc2c1.Cc1ccc(S(=O)(=O)O)cc1 ({2Naphthoyl(6-octyloxy)}-[Orn]VP[hTyr]K[Pro(4S-NH2)]; lactam 1-C) | 4 µg/mL | 1 µg/mL | 32 µg/mL | 32 µg/mL | 1 µg/mL | 32 µg/mL | 2 µg/mL
19 | CCCCCCCCOc1ccc2cc(C(=O)N[C@H]3CCCNC(=O)[C@@H]4C[C@H](N)CN4C(=O)[C@H](CCCN)NC(=O)[C@H](CCc4ccc(O)cc4)NC(=O)[C@@H]4CCCN4C(=O)[C@H](C(C)C)NC3=O)ccc2c1.Cc1ccc(S(=O)(=O)O)cc1 ({2Naphthoyl(6-octyloxy)}-[Orn]VP[hTyr][Orn][Pro(4S-NH2)]; lactam 1-C) | 2 µg/mL | 1 µg/mL | 16 µg/mL | 16 µg/mL | 0.5 µg/mL | 16 µg/mL | 2 µg/mL
